Consider 22 compounds from patent US6114349A, “Substituted quinoline derivatives with antiviral action” (Hoechst Aktiengesellschaft, priority 1996, dated 2000).

As a reminder, the EC50 is the midpoint of the concentration-response curve. Read a high EC50 as lower potency in that assay.

Converted amounts (≈) assume the structure as drawn.

Series [1] has as its target T1, HIV "Reverse Transcriptase" (Human immunodeficiency virus type 1 group M subtype B, UniProt P04585).
T1 construct: purchased HT Biotechnology LTD, Cambridge, UK; host or cells: E. coli
Description: Inhibition of HIV reverse transcriptase, Scintillation Proximity Assay (SPA). The series is classed as biochemical. The conditions noted are these: RT-SPA, 60 min, 37° C.; read-out: Reverse Transcriptase Assay IC-50 (converted). The procedure: Investigation of the Substances for Inhibition of HIV "Reverse Transcriptase"
The activity of the reverse transcriptase (RT) was determined using a "Scintillation Proximity Assay" (SPA).
The reagent kit for the RT-SPA was obtained from Amersham/Buchler (Brunswick). The enzyme RT (from HIV cloned in E. coli) came from HT Biotechnology LTD, Cambridge, UK.
The test was carried out according to the method manual of the manufacturer Amersham--with the following modifications:
Bovine serum albumin was added to the assay buffer to a final concentration of 0.5 mg/ml.
The test was carried out in Eppendorf reaction vessels with a […] batch volume.
The RT concentrate of the manufacturer (5000 U/ml) was diluted to an activity of 15 U/ml in tris HCl buffer 20 mM; pH 7.2; 30% glycerol.
The incubation time for the batches was 60 min (37° C.).
After stopping the reaction and "development" with the bead suspension, 130 μl batches were transferred to 4.5 ml of tris HCl buffer, 10 mM; pH 7.4; 0.15 M NaCl and the tritium activity was measured in a β-counter.
For a preliminary test of the inhibitor activity, the substances were dissolved in DMSO (stock solution c=1 mg/ml) and tested in dilution in DMSO 10^-1, 10^-2, 10^-3 etc.
For the determination of IC50 values, the inhibitor stock solutions were further diluted in tris HCl buffer, 50 mM, pH 8 and tested in suitable concentrations.
From the graphic representation of RT activity versus Log Clnh., the concentration associated with a 50% enzyme inhibition was determined.
(In a scintillation proximity assay essentially only radioactivity close to the scintillant gives light.)

The test system of another series is HIV. Description: Testing of preparations against HIV in cell culture (giant cell formation in HIV-infected lymphocytes). It counts as cell-based. The conditions noted are these: 3 days, 37° C.; for MIC: Human immunodeficiency virus 1, 72 h, lowest concentration at which no giant cells occurred; for EC50: Human immunodeficiency virus 1, Lymphocyte, 72 h. How it is done: Testing of Preparations Against HIV Cell Culture
Complete medium additionally contains 20% fetal calf serum and 40 IU/ml of recombinant interleukin 2.
Lymphocytes isolated from fresh donor blood by means of Ficoll^R gradient centrifugation are cultured at 37° C. under 5% CO2 for 36 h in complete medium with addition of […] of phytohemagglutinin (Wellcome). After addition of 10% DMSO, the cells are frozen at a cell density of 5×10^6 and stored in liquid nitrogen. For the experiment, the cells are thawed, washed in RPMI medium and cultured in complete medium for 3-4 days.
The test preparations were dissolved in DMSO in a concentration of 16.7 mg/ml and diluted to 1 mg/ml in complete medium. 0.4 ml of medium was initially introduced into 24-well multiwell dishes. After addition of 0.1 ml of the dissolved preparation in the top row of the dish, a geometrical dilution series was produced by transfer of 0.1 ml in each case. Preparation-free controls always contained 0.4 ml of complete medium containing 0.5% DMSO. Lymphocyte cultures having a cell count of 5×10^5 cells/ml were infected by addition of 1/50 volumes of supernatant from HIV-infected lymphocyte cultures. The titer of these culture supernatants was determined by endpoint dilution with 1-5×10^6 infectious units/ml. After incubation at 37° C. for 30 min, the infected lymphocytes were removed by centrifugation and taken up again in the same volume of medium. 0.6 ml of this cell suspension in each case was added to all hollows of the test plate. The batches were incubated at 37° C. for 3 days.
The infected cell cultures were investigated under the microscope for the presence of giant cells, which indicate active virus replication in the culture. The lowest preparation concentration at which no giant cells occurred was determined as the inhibitory concentration against HIV. For the control, the supematants from the culture plates were determined for the presence of HIV antigen using an HIV antigen test according to the instructions of the manufacturer (Organon).

For series [2] the following is noted: Hirsch, M. S. J. Infect. Dis. 157 (1988), 427-431; cited from earlier work.

In the case of `CCc1c(C(=O)OC(C)C)c2ccccc2[nH]c1=S` [Compound 5], the IC50 in series [1] was 35 nM. In the series on HIV, the MIC was determined as 0.2 µg/mL (≈ 0.726 µM) and the EC50 amounted to 0.005 µg/mL (≈ 0.0182 µM).
Consider `CC(C)OC(=O)c1c(-c2ccccc2)c(=S)[nH]c2ccc(Cl)cc12` [Compound 6], for which the IC50 in series [1] is 22 nM.
For the compound `CC(C)OC(=O)c1c(-c2ccccc2)c(=S)[nH]c2ccc(F)cc12` [Compound 15], the IC50 in series [1] is 21 nM. In the series with HIV, this compound had an MIC above 0.04 µg/mL and an EC50 of around 0.02 µg/mL (≈ 0.0586 µM).
For `CC(C)Cc1c(C(=O)OC(C)C)c2ccccc2[nH]c1=O` [Compound 16], in that order: 372 nM, above 0.04 µg/mL and 0.05 µg/mL (≈ 0.174 µM).
For `CCC(CC)OC(=O)c1c(-c2ccccc2)c(=S)[nH]c2ccc(Cl)cc12` [Compound 18] the same measures were 29 nM, above 0.2 µg/mL and around 0.08 µg/mL (≈ 0.207 µM).
For `CCc1c(C(=O)OC(C)C)c2cc(Cl)ccc2[nH]c1=O` [Compound 19, isopropyl 6-chloro-3-ethylquinolin-2(1H)-one-4-carboxylate], the IC50 in series [1] is 94 nM. In the series on HIV, this compound showed an MIC of around 0.2 µg/mL (≈ 0.681 µM) and a half-maximal effective concentration (EC50) of around 0.02 µg/mL (≈ 0.0681 µM).
For `CCc1c(C(=O)OC(C)C)c2cc(Cl)ccc2[nH]c1=S` [Compound 20, isopropyl 6-chloro-3-ethylquinoline-2(1H)-thione-4-carboxylate], in that order: 8 nM, above 0.008 µg/mL and around 0.002 µg/mL (≈ 0.00646 µM).
`CCc1c(C(=O)OC2CCCC2)c2ccccc2[nH]c1=S` [Compound 30]: the IC50 in series [1] is 147 nM. Moreover, in the series with HIV, the MIC is around 0.2 µg/mL (≈ 0.664 µM) and the concentration giving a half-maximal response (EC50) was around 0.04 µg/mL (≈ 0.133 µM).
For `CC(C)OC(=O)c1c(C(C)C)c(=O)[nH]c2ccccc12` [Compound 34], in that order: 1520 nM, above 0.2 µg/mL and around 0.1 µg/mL (≈ 0.366 µM).
Regarding `CC(C)OC(=O)c1c(C(C)C)c(=S)[nH]c2ccccc12` [Compound 35], the IC50 in series [1] is 529 nM. In addition, in the series on HIV, the MIC is above 0.04 µg/mL and the EC50 is above 0.008 µg/mL.
Regarding `COC(=O)c1c(C)c(=S)[nH]c2ccc(Cl)cc12` [Compound 39], in the series on HIV, the MIC was above 0.2 µg/mL and the EC50 was 0.03 µg/mL (≈ 0.112 µM).
As to `Cc1c(C(=O)OC(C)C)c2cc(Cl)ccc2[nH]c1=O` [Compound 40], the IC50 in series [1] is 608 nM. Moreover, in the series with HIV, the MIC is above 0.04 µg/mL and the midpoint of the response, the EC50, lay at 0.015 µg/mL (≈ 0.0536 µM).
In the series on HIV, `Cc1c(C(=O)OC(C)C)c2cc(Cl)ccc2[nH]c1=S` [Compound 41] yielded an MIC above 0.04 µg/mL and a half-maximal effective concentration (EC50) below 0.001 µg/mL.
Consider `Cc1c(C(=O)OCC2CC2)c2cc(Cl)ccc2[nH]c1=O` [Compound 42], for which, in the series on HIV, the MIC was above 0.2 µg/mL and the EC50 is around 0.1 µg/mL (≈ 0.343 µM).
As for `Cc1c(C(=O)OCC2CC2)c2cc(Cl)ccc2[nH]c1=S` [Compound 43], in series [1], the IC50 is 26 nM.
With `CCCOC(=O)c1c(C)c(=S)[nH]c2ccc(Cl)cc12` [Compound 45], the IC50 in series [1] was 34 nM. In the series on HIV, this compound had an MIC below 0.2 µg/mL and a 50% effective concentration (EC50) of around 0.04 µg/mL (≈ 0.135 µM).
Turning to `CC(C)OC(=O)c1c(-c2ccccc2Cl)c(=S)[nH]c2ccccc12` [Compound 61], the IC50 in series [1] was 26 nM. Further, the MIC against HIV is around 0.08 µg/mL (≈ 0.224 µM).
For the compound `CCOC(=O)c1c(CC)c(=S)[nH]c2ccc(Cl)cc12` [Compound 67], the IC50 in series [1] was 1 nM.
For `CCc1c(C(=O)OC2CCCCC2)c2cc(Cl)ccc2[nH]c1=S` [Compound 70], the IC50 in series [1] is 8 nM. In the series on HIV, this compound yielded an MIC of around 0.4 µg/mL (≈ 1.14 µM) and an EC50 below 0.08 µg/mL.
As to `C=CCOC(=O)c1c(CC)c(=S)[nH]c2ccc(Cl)cc12` [Compound 71], in series [1], the IC50 is 1 nM. In the series on HIV, this compound yielded an MIC of around 0.4 µg/mL (≈ 1.3 µM) and an EC50 below 0.08 µg/mL.
As for `Nc1ccn([C@H]2CC[C@@H](CO)O2)c(=O)n1` [DDC], the “therapeutic breadth / toxicity” value in series [2] is reported as “very narrow therapeutic breadth or by very severe toxicity which occurs even in the therapeutic range”.
With `O=c1[nH]cnc2c1ncn2[C@H]1CC[C@@H](CO)O1` [DDI], the “therapeutic breadth / toxicity” value in series [2] is on record as “very narrow therapeutic breadth or by very severe toxicity which occurs even in the therapeutic range”.
